Reference: ChEMBL document CHEMBL1201862, “PubChem BioAssay data set” (2004)
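Interpolation was linear, between the two tested concentrations surrounding the appropriate level; five concentrations were tested over 48 hours in 96-well plates. GI50 is the concentration that inhibits growth by half.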 Active and inactive are the calls of the source. Rule as the data show it: active = GI50 up to about 1.1 µM and inactive = higher.

Tests used:
Experiment in all cases: NCI-60 cell line screen, 48 h
HCT-15 = tested on: HCT-15
LOX IMVI = tested on: LOX IMVI
HL-60 = tested on: HL-60
SN12C = tested on: SN12C
NCI-H522 = tested on: NCI-H522
OVCAR-5 = tested on: OVCAR-5
HT-29 = tested on: HT-29
RPMI-8226 = tested on: RPMI-8226
CAKI-1 = tested on: CAKI-1
HOP-62 = tested on: HOP-62
SF-295 = tested on: SF-295
A498 = tested on: A498
IGROV-1 = tested on: IGROV-1
UACC-257 = tested on: UACC-257
Malme-3M = tested on: Malme-3M
UACC-62 = tested on: UACC-62
NCI-H460 = tested on: NCI-H460
NCI-H23 = tested on: NCI-H23
SF-539 = tested on: SF-539
SR = tested on: SR

SMILES | GI50 (HCT-15) [µM] | GI50 (LOX IMVI) | GI50 (HL-60) | GI50 (SN12C) | GI50 (NCI-H522) | GI50 (OVCAR-5) | GI50 (HT-29) | GI50 (RPMI-8226) | GI50 (CAKI-1) | GI50 (HOP-62) | GI50 (SF-295) | GI50 (A498) | GI50 (IGROV-1) | GI50 (UACC-257) | GI50 (Malme-3M) | GI50 (UACC-62) | GI50 (NCI-H460) | GI50 (NCI-H23) | GI50 (SF-539) | GI50 (SR)
CCCNC(=O)NNC(=O)c1c[nH]c2nc(C)ccc2c1=O | > 100 | > 100 µM (inactive) | > 100 µM (inactive) | > 100 µM (inactive) | > 100 µM (inactive) | > 100 µM (inactive) | > 100 µM (inactive) | > 100 µM (inactive) | > 100 µM (inactive) | > 100 µM (inactive) | > 100 µM (inactive) | > 100 µM (inactive) | > 100 µM (inactive) | > 100 µM (inactive) | > 100 µM (inactive) | > 100 µM (inactive) | > 100 µM (inactive) | > 100 µM (inactive) |  | 
CC(=O)NNc1nc(C)c(C(/C=C/c2ccc(Cl)cc2)=N\NS(=O)(=O)c2ccc(C)cc2)s1 | > 100 | > 100 µM (inactive) | > 100 µM (inactive) | > 100 µM (inactive) | > 100 µM (inactive) | > 100 µM (inactive) | > 100 µM (inactive) | > 100 µM (inactive) | > 100 µM (inactive) | > 100 µM (inactive) | > 100 µM (inactive) | > 100 µM (inactive) | > 100 µM (inactive) | > 100 µM (inactive) | > 100 µM (inactive) | > 100 µM (inactive) | > 100 µM (inactive) | > 100 µM (inactive) | > 100 µM (inactive) | 
CN(c1ccc(Cl)cc1)S(=O)(=O)c1ccc([N+](=O)[O-])cc1 | > 100 | > 100 µM (inactive) | 59.4 µM (inactive) | > 100 µM (inactive) | > 100 µM (inactive) | > 100 µM (inactive) | > 100 µM (inactive) | > 100 µM (inactive) | > 100 µM (inactive) | > 100 µM (inactive) | > 100 µM (inactive) |  | > 100 µM (inactive) | > 100 µM (inactive) | 84.7 µM (inactive) | > 100 µM (inactive) | > 100 µM (inactive) | > 100 µM (inactive) | > 100 µM (inactive) | 
CC(=O)/C(=C/NC(=S)Nc1ccc(Cl)c(Cl)c1)C(=O)Nc1ccccc1C | 29.6 | 34 µM (inactive) | 17.1 µM (inactive) | 35.7 µM (inactive) |  | 32 µM (inactive) | 22.3 µM (inactive) |  | 22.3 µM (inactive) | 33.4 µM (inactive) | 32 µM (inactive) | 26.2 µM (inactive) | 27.4 µM (inactive) | 31.7 µM (inactive) |  | 19 µM (inactive) | 38.5 µM (inactive) | 23.6 µM (inactive) | 14.5 µM (inactive) | 
CCOC(=O)CCc1c(C)c2c(OC)cc(OC)cc2oc1=O |  | > 100 µM (inactive) | 88.3 µM (inactive) | 79.4 µM (inactive) | > 100 µM (inactive) | 59.3 µM (inactive) | 91 µM (inactive) |  | 72.3 µM (inactive) | > 100 µM (inactive) | > 100 µM (inactive) |  |  | > 100 µM (inactive) | 51.3 µM (inactive) |  | > 100 µM (inactive) | > 100 µM (inactive) | > 100 µM (inactive) | 
COC(=O)CCC(NC(=S)N/N=C(\C)c1nccs1)C(=O)OC (configuration not stated) | 46.3 | 52 µM (inactive) | 10 µM (inactive) | > 100 µM (inactive) | 26.4 µM (inactive) | 53 µM (inactive) | 73.5 µM (inactive) | 3.23 µM (inactive) |  | 48.8 µM (inactive) | 87.7 µM (inactive) | > 100 µM (inactive) | 73.5 µM (inactive) | > 100 µM (inactive) | > 100 µM (inactive) | 28.1 µM (inactive) | 53.3 µM (inactive) | > 100 µM (inactive) | > 100 µM (inactive) | 
O=C1/C(=C\c2cccc(Oc3ccccc3)c2)SC(c2ccccc2)N1c1cc(Cl)ccc1Cl (configuration not stated) | 35.2 | 16.8 µM (inactive) | 15.1 µM (inactive) | 18.7 µM (inactive) | 21 µM (inactive) | 59 µM (inactive) | 30.8 µM (inactive) | 37 µM (inactive) | 69.2 µM (inactive) | 56.5 µM (inactive) | 24.2 µM (inactive) | > 100 µM (inactive) | 26.3 µM (inactive) | 32.7 µM (inactive) | 28.2 µM (inactive) | 31.4 µM (inactive) | 45.4 µM (inactive) | 33.4 µM (inactive) | 24.3 µM (inactive) | 
COc1ccc(C2=C(OC(C)=O)c3cccn3-c3ccccc3S2)cc1 | 1.18 | 4.55 µM (inactive) | 0.512 µM (active) | 1.29 µM (inactive) |  |  | 2.19 µM (inactive) | 2.4 µM (inactive) | 4.55 µM (inactive) | 3.1 µM (inactive) | 1.45 µM (inactive) |  | 4.81 µM (inactive) | > 10 µM (inactive) | 2.7 µM (inactive) | 2.9 µM (inactive) |  | 1.89 µM (inactive) |  | 3.36 µM (inactive)
Cc1cc2nc3c(C#N)c4c(c(Nc5ccc(Cl)cc5)n3c2cc1C)CCC4 | 18.8 | 18.7 µM (inactive) |  | 19.4 µM (inactive) | 13.6 µM (inactive) | 17.3 µM (inactive) | 18.1 µM (inactive) | 3.66 µM (inactive) | 20.5 µM (inactive) | 58.7 µM (inactive) | > 100 µM (inactive) | > 100 µM (inactive) |  | 16 µM (inactive) | 23.8 µM (inactive) |  |  | 26.3 µM (inactive) | 27.1 µM (inactive) | 
CC1=C(C(=O)O)N2C(=O)[C@@H](NC(=O)C(c3ccc(O)cc3)N3CSC(=S)N(C(C)C)C3)C2SC1 (some centres not stated) | > 100 | > 100 µM (inactive) | > 100 µM (inactive) | > 100 µM (inactive) | 50.1 µM (inactive) | > 100 µM (inactive) | > 100 µM (inactive) | > 100 µM (inactive) |  | > 100 µM (inactive) | > 100 µM (inactive) | > 100 µM (inactive) | > 100 µM (inactive) | > 100 µM (inactive) | > 100 µM (inactive) | > 100 µM (inactive) | > 100 µM (inactive) | > 100 µM (inactive) | > 100 µM (inactive) | 
N#C/C(=C\c1cccc(O)c1)C(N)=O | > 100 | > 100 µM (inactive) | 20.9 µM (inactive) | > 100 µM (inactive) | > 100 µM (inactive) | > 100 µM (inactive) | > 100 µM (inactive) | > 100 µM (inactive) | > 100 µM (inactive) | > 100 µM (inactive) | > 100 µM (inactive) | > 100 µM (inactive) | > 100 µM (inactive) | > 100 µM (inactive) | > 100 µM (inactive) | > 100 µM (inactive) | > 100 µM (inactive) | > 100 µM (inactive) | > 100 µM (inactive) | 
Cc1nnc2nc(-c3ccc(Cl)cc3Cl)cc(-c3ccc(Cl)cc3)n12 | > 100 | > 100 µM (inactive) | > 100 µM (inactive) | > 100 µM (inactive) |  | > 100 µM (inactive) | 20.5 µM (inactive) | 35.6 µM (inactive) | 66.5 µM (inactive) | > 100 µM (inactive) | 91.4 µM (inactive) |  |  | > 100 µM (inactive) | > 100 µM (inactive) | > 100 µM (inactive) | 82.6 µM (inactive) | > 100 µM (inactive) | > 100 µM (inactive) | > 100 µM (inactive)
CC(C)(C)OC(=O)CC(NC(=O)OC(C)(C)C)C(=O)NC(C(=O)O)C(O)c1ccccc1 (configuration not stated) | > 100 | > 100 µM (inactive) |  |  | > 100 µM (inactive) | > 100 µM (inactive) | 75.3 µM (inactive) | 70.1 µM (inactive) | > 100 µM (inactive) | > 100 µM (inactive) | > 100 µM (inactive) | > 100 µM (inactive) | > 100 µM (inactive) | > 100 µM (inactive) | 90.4 µM (inactive) | 37.5 µM (inactive) | 69.7 µM (inactive) | > 100 µM (inactive) | > 100 µM (inactive) | 
Cc1c(CCO)c(O)n2c(nc3ccccc32)c1C#N | 45.7 | 68.7 µM (inactive) | 10 µM (inactive) |  | 34.7 µM (inactive) | > 100 µM (inactive) | 44.3 µM (inactive) | 26.7 µM (inactive) | 59 µM (inactive) | > 100 µM (inactive) | > 100 µM (inactive) | > 100 µM (inactive) | 68.4 µM (inactive) | > 100 µM (inactive) | > 100 µM (inactive) | > 100 µM (inactive) | 26.7 µM (inactive) | 53.8 µM (inactive) | > 100 µM (inactive) | 
COc1ccc(C(SCCO)(c2ccccc2)c2ccc(OC)cc2)cc1 | 13.5 | 16.5 µM (inactive) | 21.3 µM (inactive) | 14.5 µM (inactive) | 10.8 µM (inactive) | 15.2 µM (inactive) | 13.9 µM (inactive) | 24.9 µM (inactive) | 21 µM (inactive) | 15.8 µM (inactive) | 4.36 µM (inactive) | 13.9 µM (inactive) | 16.8 µM (inactive) | 14.7 µM (inactive) | 16.4 µM (inactive) | 11.5 µM (inactive) | 4.61 µM (inactive) | 18.7 µM (inactive) | 14.7 µM (inactive) | 
CC(=O)O[C@H]1CCC2[C@@H]3CCC4=C(O)C(=O)C(C#N)C[C@]4(C)C3CC[C@@]21C (some centres not stated) | 30 | 18.9 µM (inactive) | 20 µM (inactive) | 33.5 µM (inactive) |  | 75.9 µM (inactive) | 42.5 µM (inactive) | 12.4 µM (inactive) |  | 65.5 µM (inactive) | 45.9 µM (inactive) | 0.361 µM (active) | 26.2 µM (inactive) | 56.5 µM (inactive) | 36.1 µM (inactive) | 15.5 µM (inactive) | 31.6 µM (inactive) | 29.1 µM (inactive) | 50.8 µM (inactive) | 
